Laboratory results reported in patent US12258360B2, “Compositions and methods for treatment of anticancer-drug resistant cancers” (THE GEORGE WASHINGTON UNIVERSITY, priority 2020, dated 2025).
Structures can show the parent of a compound that is named as a salt. Where two headings read alike, the source gives them in different places.

Tests used:
[1] = target: T1, And-1 protein fused to a luciferase reporter gene (Homo sapiens, UniProt O75717); assay: quantitative HTS (qHTS) of LOPAC library in HEK293T-And-1-Luc cells (luciferase read-out of And-1 level); format: cell-based; conditions: HTS assay
T1 sequence (O75717 1-1129): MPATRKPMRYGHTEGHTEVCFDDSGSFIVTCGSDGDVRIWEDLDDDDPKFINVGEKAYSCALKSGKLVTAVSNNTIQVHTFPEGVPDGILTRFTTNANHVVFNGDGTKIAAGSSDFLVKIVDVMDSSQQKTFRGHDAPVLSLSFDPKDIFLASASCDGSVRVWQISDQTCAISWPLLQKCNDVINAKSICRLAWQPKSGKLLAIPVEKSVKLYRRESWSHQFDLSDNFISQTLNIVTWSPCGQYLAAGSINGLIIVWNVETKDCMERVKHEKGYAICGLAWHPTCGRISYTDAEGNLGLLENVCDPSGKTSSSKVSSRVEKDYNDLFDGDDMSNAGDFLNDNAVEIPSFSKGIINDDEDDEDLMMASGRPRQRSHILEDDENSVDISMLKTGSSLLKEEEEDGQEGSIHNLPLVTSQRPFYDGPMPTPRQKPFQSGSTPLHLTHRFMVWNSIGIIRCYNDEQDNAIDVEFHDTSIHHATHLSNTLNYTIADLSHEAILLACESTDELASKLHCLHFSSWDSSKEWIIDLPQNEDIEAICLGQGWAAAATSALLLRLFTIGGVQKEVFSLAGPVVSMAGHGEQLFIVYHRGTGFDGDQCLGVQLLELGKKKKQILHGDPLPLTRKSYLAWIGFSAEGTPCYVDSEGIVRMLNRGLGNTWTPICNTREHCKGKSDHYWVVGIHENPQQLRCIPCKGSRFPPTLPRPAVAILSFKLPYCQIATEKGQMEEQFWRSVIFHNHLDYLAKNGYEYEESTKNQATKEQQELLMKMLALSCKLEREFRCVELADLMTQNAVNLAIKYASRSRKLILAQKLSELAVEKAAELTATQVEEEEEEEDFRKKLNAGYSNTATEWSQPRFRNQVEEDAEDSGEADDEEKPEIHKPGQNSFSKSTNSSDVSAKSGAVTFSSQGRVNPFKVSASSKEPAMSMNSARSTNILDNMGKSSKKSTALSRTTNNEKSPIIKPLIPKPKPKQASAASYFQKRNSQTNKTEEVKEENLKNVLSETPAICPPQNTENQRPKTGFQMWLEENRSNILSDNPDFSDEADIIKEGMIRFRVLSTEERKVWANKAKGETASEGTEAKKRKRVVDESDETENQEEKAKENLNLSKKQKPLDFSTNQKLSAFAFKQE
Excerpt: To identify And-1 specific pharmacologic inhibitors, a high-throughput screening (HTS) assay was established to identify small molecules that can inhibit And-1 by inducing its degradation. For this assay, two stable cell lines, a HEK293T-And-1-Luc cell expressing And-1 protein fused to a luciferase reporter gene, and a HEK293T-Luc cell expressing luciferase only were generated (FIG. 13A). HEK293T-And-1-Luc cells allowed for assessment of And-1 protein levels by measuring luciferase activity in a high throughput manner.

And-1 [2] = target: T2, And-1 (Homo sapiens, UniProt O75717); assay: immunoblot analysis of And-1 expression in IGROV1 cells; format: cell-based; parameters: endogenous in cells; host or cells: IGROV1 CR; conditions: immunoblot, read-out: IC50 for inhibition of And-1 expression
T2 sequence (O75717 1-1129): T1 sequence (O75717 1-1129)
Experimental: The high IC50 of resveratrol compromises its potential clinical application; therefore, resveratrol was used as a lead compound to screen 12 analogs of resveratrol for potent compounds that can inhibit And-1 (FIG. 14). […] To perform immunoblot analyses, cells were first treated with increasing concentrations of the 12 analogs. After treatment, the cells were harvested and then lysed with RIPA buffer protease inhibitor and phosphatase inhibitor cocktail. Protein concentration was determined by the BCA protein assay. Equal amounts of whole cell lysates were separated on sodium dodecyl sulfate polyacrylamide gel electrophoresis (SDS-PAGE) and transferred onto nitrocellulose membranes. Membranes were then incubated in blocking solution (5% non-fat milk in 20 mM TRIS-HCl, 150 mM NaCl, 0.1% Tween-20) (TBST), followed by incubation with the indicated antibodies at 4° C. overnight. The membranes were then washed in TBST and incubated with HRP-conjugated secondary antibodies for 1 hour at room temperature (21° C.±2° C.). Antibody detection was performed with an enhanced chemiluminescence reaction.

SREBP target gene SCD-1 = assay: RT-PCR detection of SCD-1 gene expression in AN3CA cells; format: cell-based, human; conditions: 10 μM; for Relative mRNA expression of SCD-1 / activity of reducing SCD-1 gene expression (in words): AN3CA cells; for Relative mRNA expression of SCD-1: 48 h, DMSO = 1
Experimental: • 1. Experimental reagent • 2. The experimental steps are as follows: • 2.1 AN3CA cell recovery and culture (10% serum 1% double antibody in MEM medium); • 2.2 passages (passage at a ratio of 1:2); • 2.3 Place 6 well plates when the cell status is good, 5×10^5Well, culture overnight; • 2.4 adding medicine: diluting the final concentration of the drug with a culture medium to 10 μM, 2 mL/well; • 2.5 adding medicine for 48 h, and then extracting RNA; • 2.5.1 removing the culture medium, adding 0.5 mL/hole Trizol to lyse the cells, repeatedly blowing and beating the cells by a pipette after 5 min, completely lysing the cells, transferring the cells into a 1.5 mL EP tube without RNase, and standing the tube for 5 min; • 2.5.2 adding 200 µl chloroform, shaking rapidly, mixing, standing for 10 min 12000 rpm/15 min; • 2.5.3 carefully taking out the supernatant, transferring the supernatant into an EP tube, adding isopropanol with the same volume, reversing, uniformly mixing, standing for 10 min, and centrifuging at 12000 rpm/10 min; • 2.5.4 removing the supernatant, adding 1 mL of 75% ethanol for washing, centrifuging at 8000 rpm/5 min once, carefully removing the supernatant, standing at room temperature for 10 min to volatilize the ethanol, and dissolving the precipitate with 40 μL of DEPC treated water when the precipitate becomes transparent; • 2.5.5 RNA concentration was measured and DEPC-treated water was diluted to 100 ng/μL • 2.6 reverse transcription: Kit Takara (PrimeScript RT reagent Kit (Perfect Real Time)

And-1 [3] = target: T2, And-1; assay: inhibition of And-1 in IGROV1 CR cells; format: cell-based; parameters: endogenous in cells; host or cells: IGROV1 CR; conditions: inhibition of And-1, IGROV1 CR cells
And-1 [4] = target: T2, And-1; assay: inhibition of And-1 in OV90 CR cells; format: cell-based; parameters: endogenous in cells; conditions: inhibition of And-1, OV90 CR cells
AN3CA cells = assay: cell proliferation assay (MTS) in AN3CA cells; format: cell-based, human; conditions: 10 μM, 48 h
Experimental: • 1. The experimental steps are as follows: • 1.1 AN3CA cell recovery and culture (MEM medium, 10% serum, 1% double antibody); • 1.2 Passages (passage at a ratio of 1:2); • 1.3 Place 96-well plate when the cell status is good, 1×10^4 Well, culture overnight; • culture medium with 10% defatted serum • 1.4 Adding medicine: diluting the final concentration of the drug with a culture medium to 10 μM, and treating for 48 h at 100 μL/well; • culture medium with 10% defatted serum • 1.5 Addition of 2 μL MTS/well, care taken to prevent bubble formation, 490 nm data after 1-4 h

[5] = determination 1, read-out: IC50 (μM) 1
[6] = average of 1 and 2, read-out: IC50 (μM) average
[7] = determination 2, read-out: IC50 (μM) 2

| SMILES | IC50 [1, 6] | IC50 [1, 5] | IC50 [1, 7] | Relative mRNA expression of SCD-1 (SREBP target gene SCD-1) | further results |
| --- | --- | --- | --- | --- | --- |
| CC[C@@]1(O)C(=O)OCc2c1cc1n(c2=O)Cc2cc3c(CN(C)C)c(O)ccc3nc2-1 [Topotecan hydrochloride hydrate] | – | – | – | – | DC50 [1, 5]: 0.61 µM; IC50 (μM) 2 ([1]; determination 2): inactive |
| O=C1C(SCCO)=C(SCCO)C(=O)c2ccccc21 [NSC 95397] | 9.42 µM | 11.2 µM | 7.68 µM | – | – |
| CC[n+]1c(/C=C/C=C2/N(C)c3ccccc3C2(C)C)sc2ccccc21 [AC-93253 iodide] | 0.76 µM | 1.09 µM | 0.44 µM | – | – |
| COCCOC(=O)C1=C(C)NC(C)=C(C(=O)OC/C=C/c2ccccc2)C1c1cccc([N+](=O)[O-])c1 (centres unmarked) [Cilnidipine] | 21.1 µM | 22.9 µM | 19.3 µM | – | – |
| Oc1ccc(C=Cc2cc(O)cc(O)c2)cc1 [Resveratrol] | – | – | – | – | DC50 (And-1 [2]): 16.7 µM; DC50 [1, 6]: 18.9 µM; DC50 [1, 5]: 14.9 µM; DC50 [1, 7]: 22.9 µM |
| CNc1ccc2oc(C[C@H]3O[C@@]4(CC[C@H]3C)O[C@H]([C@H](C)C(=O)c3ccc[nH]3)[C@H](C)C[C@H]4C)nc2c1C(=O)O [Calcimycin] | 8.32 µM | 6.1 µM | 10.5 µM | – | – |
| COc1cc2c(cc1O)CC[C@@H]1[C@@H]2CC[C@]2(C)[C@@H](O)CC[C@@H]12 [2-methoxyestradiol] | – | 1.67 µM | – | – | IC50 (μM) 2 ([1]; determination 2): inactive |
| OB1OCc2cc(/C=C/c3ccc(C(F)(F)F)cc3)ccc21 [VII, (E)-5-(4-(trifluoromethyl)styryl)benzo[c][1,2]oxaborol-1(3H)-ol] | – | – | – | 1.07 | – |
| OB1OCc2cc(/C=C/c3cccc(F)c3)ccc21 [IX, (E)-5-(3-fluorostyryl)benzo[c][1,2]oxaborol-1(3H)-ol] | – | – | – | 0.72 | – |
| COc1cccc(/C=C/c2ccc3c(c2)COB3O)c1 [XII, (E)-5-(3-methoxystyryl)benzo[c][1,2]oxaborol-1(3H)-ol] | – | – | – | 0.62 | IC50 (And-1 [3]): 34.1 µM; IC50 (And-1 [4]): 37.4 µM |
| Cc1cccc(/C=C/c2ccc3c(c2)COB3O)c1 [XI, (E)-5-(3-methylstyryl)benzo[c][1,2]oxaborol-1(3H)-ol] | – | – | – | – | IC50 (And-1 [3]): 32.9 µM; IC50 (And-1 [4]): 34.3 µM |
| Nc1ccn([C@@H]2O[C@H](CO)[C@@H](O)C2(F)F)c(=O)n1 [Gemcitabine hydrochloride] | – | 0.02 µM | – | – | IC50 (μM) 2 ([1]; determination 2): inactive |
| CCN(CC)CCOc1ccc(Nc2ncc3cc(-c4c(Cl)cccc4Cl)c(=O)n(C)c3n2)cc1 [PD-166285 hydrate] | – | – | – | – | DC50 [1, 6]: 3.03 µM; DC50 [1, 5]: 3.33 µM; DC50 [1, 7]: 2.73 µM |
| OB1OCc2cc(/C=C/c3cc(C(F)(F)F)cc(C(F)(F)F)c3)ccc21 [IV, (E)-5-(3,5-bis(trifluoromethyl)styryl)benzo[c][1,2]oxaborol-1(3H)-ol] | – | – | – | 0.42 | IC50 (And-1 [3]): 37.6 µM; inhibition of AN3CA cell proliferation (in words) (AN3CA cells): different degrees of inhibition; activity of reducing SCD-1 gene expression (in words) (SREBP target gene SCD-1): better than those of BF-175; IC50 (And-1 [4]): 57.9 µM |
| OB1OCc2cc(/C=C/c3ccccc3)ccc21 [XIII, (E)-5-styrylbenzo[c][1,2]oxaborol-1(3H)-ol] | – | – | – | 0.71 | IC50 (And-1 [3]): 41 µM; IC50 (And-1 [4]): 45.6 µM |
| C=CCc1cccc(/C=N/NC(=O)CN2CCN(Cc3ccccc3)CC2)c1O [PAC-1] | 21.3 µM | 18.8 µM | 23.8 µM | – | – |
| C/C=C(/C)C(=O)O[C@H]1C(C)=C2[C@H]([C@@H]1OC(=O)CCCCCCC)[C@@](C)(OC(C)=O)C[C@H](OC(=O)CCC)[C@@]1(O)[C@H]2OC(=O)[C@@]1(C)O [Thapsigargin] | 6.95 µM | 13.3 µM | 0.63 µM | – | – |
| OB1OCc2cc(/C=C/c3cccc(Cl)c3)ccc21 [X, (E)-5-(3-chlorostyryl)benzo[c][1,2]oxaborol-1(3H)-ol] | – | – | – | 0.56 | IC50 (And-1 [3]): 19.2 µM; inhibitory effect on Srebp (SREBP target gene SCD-1; human endometrial cancer AN3CA cells): high inhibitory effect; IC50 (And-1 [4]): 20.6 µM |
| OB1OCc2cc(/C=C/c3ccccc3C(F)(F)F)ccc21 [VI, (E)-5-(2-(trifluoromethyl)styryl)benzo[c][1,2]oxaborol-1(3H)-ol] | – | – | – | 1.03 | – |
| c1ccc2c(c1)[I+]c1ccccc1-2 [Diphenyleneiodonium chloride] | 0.43 µM | 0.84 µM | 0.03 µM | – | – |
| OB1OCc2cc(Cl)ccc21 [travaborole, reference compound] | – | – | – | 1.08 | activity of reducing SCD-1 gene expression (in words) (SREBP target gene SCD-1): do not have the activity of reducing the expression of SCD-1 gene |
| OB1OCc2cc(/C=C/c3cc(F)cc(C(F)(F)F)c3)ccc21 [V] | – | – | – | 0.72 | – |
| CC[C@@]1(O)C(=O)OCc2c1cc1n(c2=O)Cc2cc3ccccc3nc2-1 [(S)-(+)-Camptothecin] | – | 0.73 µM | – | – | IC50 (μM) 2 ([1]; determination 2): inactive |
